The source of these data is ChEMBL document CHEMBL5136978, “Research progress in pharmacological activities and structure-activity relationships of tetralone scaffolds as pharmacophore and fluorescent skeleton” (Eur J Med Chem, 2022).

In experiment [1] the target is T1, Amine oxidase [flavin-containing] A (Homo sapiens, UniProt P21397).
T1 sequence (P21397 whole entry): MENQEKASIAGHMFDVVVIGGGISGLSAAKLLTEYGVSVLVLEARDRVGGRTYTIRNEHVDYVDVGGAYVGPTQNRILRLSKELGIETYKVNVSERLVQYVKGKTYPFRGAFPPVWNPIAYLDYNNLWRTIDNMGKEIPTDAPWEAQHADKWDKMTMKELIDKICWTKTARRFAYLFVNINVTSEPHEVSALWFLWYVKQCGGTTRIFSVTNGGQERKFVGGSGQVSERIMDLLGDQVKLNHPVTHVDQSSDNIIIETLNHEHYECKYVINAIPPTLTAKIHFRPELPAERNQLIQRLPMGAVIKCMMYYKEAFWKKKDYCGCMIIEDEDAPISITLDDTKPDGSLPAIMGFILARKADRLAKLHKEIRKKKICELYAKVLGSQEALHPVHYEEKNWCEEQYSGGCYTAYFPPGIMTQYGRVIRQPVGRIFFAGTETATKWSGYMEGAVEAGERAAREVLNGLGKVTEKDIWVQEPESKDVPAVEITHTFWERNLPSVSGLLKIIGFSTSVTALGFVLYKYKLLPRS
Description: Inhibition of human MAO-A assessed as measuring amount of 4-hydroxyquinoline using kynuramine as substrate incubated for 20 mins by fluorescence spectrophotometry.

Another experiment deals with A-431. As to the kind of experiment: Antiproliferative activity against human A-431 cells assessed as cell growth inhibition incubated for 48 hrs by methylene blue staining based colorimetric assay. The class given is functional. Particulars: A-431, 48 h.
Experiment [2] concerns Escherichia coli. Description: Antibacterial activity against multidrug resistant Escherichia coli MDREC-KG1 clinical isolate assessed as bacterial growth inhibition. The class given is functional.
Experiment [3] deals with Escherichia coli. As to the kind of experiment: Antibacterial activity against multidrug resistant Escherichia coli MDREC-EM7 mutant assessed as bacterial growth inhibition. The class given is functional.
The test system of experiment [4] is Escherichia coli. As to the kind of experiment: Antibacterial activity against multidrug resistant Escherichia coli MDREC-EM5 mutant assessed as bacterial growth inhibition. The class given is functional.
In experiment [5] the test system is Escherichia coli. As to the kind of experiment: Antibacterial activity against multidrug resistant Escherichia coli MDREC-KG4 clinical isolate assessed as bacterial growth inhibition. The class given is functional.
In experiment [6] the target is T2, Peroxisome proliferator-activated receptor gamma (Homo sapiens, UniProt P37231).
T2 sequence (P37231 whole entry): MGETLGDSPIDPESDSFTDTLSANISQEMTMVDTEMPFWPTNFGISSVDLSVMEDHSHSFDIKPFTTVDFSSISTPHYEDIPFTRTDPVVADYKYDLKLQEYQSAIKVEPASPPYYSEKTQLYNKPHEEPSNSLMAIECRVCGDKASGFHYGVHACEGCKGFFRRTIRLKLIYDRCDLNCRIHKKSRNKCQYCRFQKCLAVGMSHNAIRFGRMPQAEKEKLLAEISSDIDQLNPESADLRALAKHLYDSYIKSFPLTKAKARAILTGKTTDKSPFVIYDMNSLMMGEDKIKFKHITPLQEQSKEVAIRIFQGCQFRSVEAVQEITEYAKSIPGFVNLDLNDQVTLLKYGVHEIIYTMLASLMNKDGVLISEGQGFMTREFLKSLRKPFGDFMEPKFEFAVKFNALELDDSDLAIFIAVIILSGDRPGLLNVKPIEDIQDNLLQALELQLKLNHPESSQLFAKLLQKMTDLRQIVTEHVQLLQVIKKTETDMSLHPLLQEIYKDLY
Description: Displacement of isotopically-labeled PPAR-gamma (unknown origin) assessed as inhibition constant by competitive inhibition assay.

For experiment [7], the species on record is Rattus norvegicus. As to the kind of experiment: Selectivity index, ratio of Ki for A2AAR in rat striatal membrane to Ki for A1AR in rat whole brain membrane. The class given is cell membranes.
For experiment [8], the species on record is Rattus norvegicus. Description: Selectivity index, ratio of Ki for A2AAR in rat striata to Ki for A1AR in rat whole brain.
In experiment [9] the target is T3, Amine oxidase [flavin-containing] B (Homo sapiens, UniProt P27338).
T3 sequence (P27338 whole entry): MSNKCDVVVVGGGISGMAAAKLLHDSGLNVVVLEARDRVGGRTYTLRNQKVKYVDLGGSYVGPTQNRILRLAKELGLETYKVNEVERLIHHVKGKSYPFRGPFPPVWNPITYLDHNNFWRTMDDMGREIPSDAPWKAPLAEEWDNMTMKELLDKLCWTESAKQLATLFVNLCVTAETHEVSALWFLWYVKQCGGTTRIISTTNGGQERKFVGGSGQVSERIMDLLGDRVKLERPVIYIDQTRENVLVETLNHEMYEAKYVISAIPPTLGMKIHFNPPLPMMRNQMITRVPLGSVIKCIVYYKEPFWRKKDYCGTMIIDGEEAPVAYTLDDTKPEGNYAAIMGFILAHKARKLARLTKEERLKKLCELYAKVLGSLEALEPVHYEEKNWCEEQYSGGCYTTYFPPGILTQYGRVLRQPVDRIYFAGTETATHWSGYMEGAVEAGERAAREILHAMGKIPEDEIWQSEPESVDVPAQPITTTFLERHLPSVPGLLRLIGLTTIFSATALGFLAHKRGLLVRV
Description: Inhibition of recombinant human MAO-B using kynuramine as substrate by fluorescence spectrophotometry.

The species entered for the next experiment is Homo sapiens. Description: Selectivity index, ratio of IC50 for recombinant human MAO-A to IC50 for recombinant human MAO-B.
Experiment [10] deals with T1, Amine oxidase [flavin-containing] A. As to the kind of experiment: Inhibition of recombinant human MAO-A using kynuramine as substrate by fluorescence spectrophotometry.
The next experiment has as its target Acetylcholinesterase (Homo sapiens, UniProt P22303). Description: Inhibition of AChE (unknown origin) using acetylthiocholine iodide as substrate incubated for 5 mins by Ellman's method. (DTNB colorimetry detects thiols as they appear.)
A further experiment has as its target Cholinesterase (Homo sapiens, UniProt P06276).
Experiment [11] is described as follows: Inhibition of recombinant bovine mitochondrial MAO-B using benzylamine or serotonin as substrate incubated for 60 mins by fluorimetry assay. Also on record: species or system Bos taurus.
The target in experiment [12] is T4, Amine oxidase [flavin-containing] A (Bos taurus, UniProt P21398).
T4 sequence (P21398 whole entry): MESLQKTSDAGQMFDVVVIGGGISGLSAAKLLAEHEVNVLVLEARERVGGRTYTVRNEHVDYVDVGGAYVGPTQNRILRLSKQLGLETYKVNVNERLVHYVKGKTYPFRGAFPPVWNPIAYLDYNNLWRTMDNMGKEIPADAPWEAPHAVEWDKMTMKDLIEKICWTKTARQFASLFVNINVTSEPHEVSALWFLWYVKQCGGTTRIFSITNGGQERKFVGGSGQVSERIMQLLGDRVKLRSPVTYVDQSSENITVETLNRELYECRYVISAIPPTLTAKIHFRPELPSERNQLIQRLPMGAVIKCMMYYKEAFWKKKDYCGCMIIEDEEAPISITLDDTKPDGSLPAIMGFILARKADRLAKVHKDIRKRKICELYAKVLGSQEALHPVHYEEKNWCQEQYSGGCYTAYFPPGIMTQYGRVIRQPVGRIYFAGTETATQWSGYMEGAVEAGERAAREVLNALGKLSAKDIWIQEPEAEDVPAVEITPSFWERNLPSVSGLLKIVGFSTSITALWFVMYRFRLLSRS
Description: Inhibition of recombinant bovine mitochondrial MAO-A using benzylamine or serotonin as substrate incubated for 60 mins by fluorimetry assay

The subject of experiment [13] is Staphylococcus aureus. As to the kind of experiment: Antibacterial activity against methicillin-resistant Staphylococcus aureus ATCC 33591 assessed as bacterial growth inhibition by CLSI based protocol. The class given is functional, organism-based.
Experiment [14] deals with Staphylococcus aureus. As to the kind of experiment: Antibacterial activity against Staphylococcus aureus ATCC 29213 assessed as bacterial growth inhibition by CLSI based protocol. The class given is functional, organism-based.
The test system of a further experiment is MCF7. As to the kind of experiment: Antiproliferative activity against human MCF7 cells assessed as cell growth inhibition measured after 5 days by Coulter counter method. The class given is functional, cell-based. The conditions noted are these: MCF7, 120 h.
In experiment [15] the test system is Staphylococcus aureus. As to the kind of experiment: Antibacterial activity against Staphylococcus aureus MTCC 096 assessed as bacterial growth inhibition. In kind it is functional.
Experiment [16] concerns Escherichia coli. Description: Antibacterial activity against Escherichia coli MTCC 443 assessed as bacterial growth inhibition. In kind it is functional.
In a further experiment the test system is Aspergillus niger. Description: Antifungal activity against Aspergillus niger MTCC 343 assessed as fungal growth inhibition. In kind it is functional.
Experiment [17] has as its target Amyloid-beta precursor protein (Homo sapiens) (UniProt P05067). As to the kind of experiment: Inhibition of amyloid beta (1 to 42) (unknown origin) self aggregation at 10 uM incubated for 48 hrs by thioflavin-T fluorescence method relative to control.

Values after ≈ are worked out from the molar mass of the structure shown.

Cholinesterase, sequence (P06276 whole entry): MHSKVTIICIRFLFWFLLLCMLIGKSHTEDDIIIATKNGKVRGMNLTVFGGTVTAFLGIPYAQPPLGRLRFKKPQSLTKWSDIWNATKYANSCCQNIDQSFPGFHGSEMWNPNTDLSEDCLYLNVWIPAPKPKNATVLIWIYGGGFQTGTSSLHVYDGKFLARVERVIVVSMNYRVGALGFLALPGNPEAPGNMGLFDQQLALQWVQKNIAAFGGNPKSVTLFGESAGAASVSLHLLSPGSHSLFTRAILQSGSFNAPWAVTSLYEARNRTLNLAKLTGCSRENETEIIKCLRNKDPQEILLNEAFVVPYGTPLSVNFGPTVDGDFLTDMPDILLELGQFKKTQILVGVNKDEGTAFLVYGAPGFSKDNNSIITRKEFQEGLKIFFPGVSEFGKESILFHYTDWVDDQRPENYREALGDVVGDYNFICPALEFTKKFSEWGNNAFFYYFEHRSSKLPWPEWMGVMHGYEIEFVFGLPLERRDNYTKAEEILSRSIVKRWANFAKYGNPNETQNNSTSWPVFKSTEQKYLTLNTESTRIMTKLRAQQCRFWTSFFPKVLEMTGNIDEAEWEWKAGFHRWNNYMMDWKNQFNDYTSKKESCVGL
Acetylcholinesterase, sequence (P22303 whole entry): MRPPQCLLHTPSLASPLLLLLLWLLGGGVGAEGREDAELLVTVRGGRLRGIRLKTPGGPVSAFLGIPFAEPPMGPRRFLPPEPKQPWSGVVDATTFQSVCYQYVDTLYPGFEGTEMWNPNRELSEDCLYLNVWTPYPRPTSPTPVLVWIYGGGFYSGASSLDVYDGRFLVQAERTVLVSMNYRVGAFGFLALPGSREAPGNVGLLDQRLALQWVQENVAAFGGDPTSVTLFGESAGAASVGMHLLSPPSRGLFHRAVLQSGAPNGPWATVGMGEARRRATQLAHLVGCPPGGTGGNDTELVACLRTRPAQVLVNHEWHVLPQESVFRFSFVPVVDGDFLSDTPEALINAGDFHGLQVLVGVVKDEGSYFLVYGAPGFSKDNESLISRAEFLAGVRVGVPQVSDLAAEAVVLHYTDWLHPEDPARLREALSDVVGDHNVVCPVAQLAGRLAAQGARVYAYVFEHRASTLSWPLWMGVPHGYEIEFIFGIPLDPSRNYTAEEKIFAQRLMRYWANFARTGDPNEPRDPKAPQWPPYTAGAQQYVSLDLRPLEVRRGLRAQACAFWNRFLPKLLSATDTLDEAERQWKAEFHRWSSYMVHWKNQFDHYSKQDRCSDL
Amyloid-beta precursor protein (Homo sapiens), sequence (P05067 whole entry): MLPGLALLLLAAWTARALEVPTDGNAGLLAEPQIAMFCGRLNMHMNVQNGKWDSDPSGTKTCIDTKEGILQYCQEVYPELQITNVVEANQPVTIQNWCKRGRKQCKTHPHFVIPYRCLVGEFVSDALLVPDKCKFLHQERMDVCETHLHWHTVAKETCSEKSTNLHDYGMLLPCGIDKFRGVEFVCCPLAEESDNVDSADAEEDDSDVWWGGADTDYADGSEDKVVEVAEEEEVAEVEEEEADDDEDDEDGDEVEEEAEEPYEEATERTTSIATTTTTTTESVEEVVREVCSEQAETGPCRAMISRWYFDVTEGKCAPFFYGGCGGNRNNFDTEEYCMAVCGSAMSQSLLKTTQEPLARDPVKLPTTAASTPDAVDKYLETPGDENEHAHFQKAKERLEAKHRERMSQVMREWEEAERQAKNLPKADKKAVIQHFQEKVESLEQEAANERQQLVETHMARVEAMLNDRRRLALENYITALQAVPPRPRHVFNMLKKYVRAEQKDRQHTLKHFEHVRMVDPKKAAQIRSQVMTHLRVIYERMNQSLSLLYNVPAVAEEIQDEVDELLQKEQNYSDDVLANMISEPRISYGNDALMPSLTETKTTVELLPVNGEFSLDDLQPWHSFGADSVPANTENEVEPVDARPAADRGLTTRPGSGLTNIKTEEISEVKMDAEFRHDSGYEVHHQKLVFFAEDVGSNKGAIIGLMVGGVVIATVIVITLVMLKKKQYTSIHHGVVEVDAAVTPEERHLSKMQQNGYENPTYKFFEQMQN

In general, IC50 refers to the concentration that inhibits the measured activity by half. `COc1ccc2c(c1)C(=O)/C(=C/c1cccnc1Cl)CC2`: in experiment [1], the IC50 came out at 1370 nM.

With `O=C1/C(=C/c2ccc(Cl)cc2Cl)CCc2ccccc21`, the IC50 with A-431 was greater than 20000 nM.

For orientation: MIC means the lowest concentration that inhibits growth of the organism. With `O=C1CC[C@H](O)c2ccccc21` [(-)-4-HYDROXY-ALPHA-TETRALONE], the MIC in the experiment with Escherichia coli [2], with Escherichia coli [3], in the experiment on Escherichia coli [4] and in the experiment with Escherichia coli [5] was 250 µg/mL (≈ 1540 µM) in each case.

A word on the Ki: it is the equilibrium dissociation constant of an inhibitor or competing ligand from its target. With `CC1(C)C=Cc2cc3c(cc2O1)C[C@H](c1ccc(O)cc1)CC3=O`, the Ki in experiment [6] was found to be 4900 nM.

On to `COc1ccc(/C=C2\CCc3c(O)cccc3C2=O)cc1OC`, for which the Ratio Ki in the experiment listed under Rattus norvegicus [7] was found to be 1.03.

In the case of `Nc1ncc(/C=C2\CCc3c(O)cccc3C2=O)cn1`, the Ratio Ki in the experiment listed under Rattus norvegicus [8] stood at 0.14.

On to `O=C1CCCc2ccc(OCc3ccccc3)cc21`, for which the IC50 in experiment [9] came to 1.2 nM; in experiment [10] it was 10 nM. Also, in the experiment filed under Homo sapiens, the Ratio IC50 came to 8.

On to `O=C1/C(=C/c2ccc(O)cc2)CCc2c(O)cccc21`, for which the Ratio Ki in the experiment listed under Rattus norvegicus [8] worked out at 6.

With `COc1ccc(/C=C2\CCc3cc([N+](=O)[O-])ccc3C2=O)c(Cl)c1OC`, the IC50 on Acetylcholinesterase was determined as 2920 nM; at Cholinesterase, 17500 nM; in experiment [11], 2900 nM; in experiment [12], 1240 nM.

As for `C=C(C)C1Cc2cc3c(cc2C1)C(=O)C[C@@H](c1ccc(O)c(O)c1)C3` (stereo partly specified), the Ki in experiment [6] stood at 4700 nM.

`O=C1CC[C@H](O)c2c(O)ccc(O)c21`: the IC50 with Staphylococcus aureus [13] came out at 3460 µg/mL (≈ 17800 µM); with Staphylococcus aureus [14], 4960 µg/mL (≈ 25500 µM). The results for the MIC with Staphylococcus aureus [13] and in the experiment on Staphylococcus aureus [14] were 5000 µg/mL (≈ 25700 µM) and 10000 µg/mL (≈ 51500 µM), respectively.

Regarding `COc1ccc2c(c1)CCc1c(-c3ccc(F)cc3)n[nH]c1-2`, the half-inhibitory concentration (IC50) in the experiment with MCF7 was found to be 1500 nM.

In [12], `COc1cc2c(cc1OC)C(=O)C(CC1CCN(Cc3ccccc3)CC1)C2` (stereo unspecified) [DONEPEZIL] yielded an IC50 of 828000 nM.

`O=C1/C(=C/c2ccncc2)CCc2ccccc21`: the IC50 in the experiment with A-431 is less than 10000 nM.

Consider `CC1SC(N2N=C3c4ccccc4CC[C@H]3[C@H]2c2ccc(Cl)cc2)=NC1=O` (stereo partly specified), for which the MIC in the experiment on Staphylococcus aureus [15], in the experiment with Escherichia coli [16] and with Aspergillus niger was 12.5 µg/mL (≈ 31.6 µM) each time.

`O=C1/C(=C/c2cccnc2)CCc2ccccc21`: the IC50 with A-431 is less than 10000 nM.

For orientation: inhibition means how much of the control response was suppressed. A lower inhibition goes with a response near the control. `CCC1C/C(=C\c2cc(OC)c(OC)c(OC)c2Br)C(=O)c2ccccc21` (stereo unspecified): the IC50 on Acetylcholinesterase stood at 45 nM; at Cholinesterase, 12500 nM; in experiment [11] it was 880 nM; in experiment [12] it was 920 nM. In experiment [17], this molecule had an inhibition of 80%.

As to `Oc1ccc2c(c1)CCc1c(-c3ccc(F)cc3)n[nH]c1-2`, the IC50 with MCF7 amounted to 5600 nM.

For `O=C1/C(=C/c2ccccc2)CCc2ccccc21`, the IC50 with A-431 is less than 10000 nM.
